Results taken from patent US10758473B2, “Extract of plant origin of globularia and method for obtaining said extract by in vitro plant culture” (Sederma, priority 2011, dated 2020).

Tests used:
[1] = Anti-singlet-oxygen test (Rose Bengal, visible light, uric acid destruction); assay type: biochemical; conditions: positive control, caffeic acid at 0002%
Description: Molecular oxygen (O2) plays a vital role as an acceptor of the respiratory chain terminal electrons. However, this metabolism and others, as well as external factors, such as UV radiations, lead to the occurrence of certain derivatives particularly reactive (singlet oxygen, hydroxyl radical, superoxide anion), which will cause oxidative damage to lipids, proteins and nucleic acids, even in healthy bodies. Singlet oxygen is one of these very energetic and highly reactive forms of oxygen. It is possible to produce experimentally in vitro singlet oxygen with dyes and UVA photons or visible light. The test presented thereafter uses the Rose Bengal, a dye and visible light. The purpose of this test is to evaluate the degradation of uric acid by singlet oxygen formed from the Rose Bengal, under the action of visible light. The visualization of the production of singlet oxygen is obtained by following the destruction of uric acid at 292 nm. In the presence of a compound capable of neutralizing singlet oxygen, this destruction will be slowed. The caffeic acid at 0002% is used as a positive control of an anti-singlet-oxygen activity Data in Table 3 below.

[2] = DPPH anti-radical test; assay type: biochemical; conditions: positive control, 0003% of caffeic acid
Description: 2) DPPH Anti-Radical Test The DPPH (1, 1-diphenyl-2-picryl hydrazyl) is a stable free radical which is widely used for the detection of free radical scavengers. This molecule by losing its radical character is converted to DPPH2 (1, 1-diphenyl-2-picryl hydrazine). This conversion is accompanied by discoloration (purple→yellow) which can be monitored over time by spectrophotometry at 517 nm.

[3] = target: bovine serum albumin (BSA) (Bos taurus, UniProt P02769); test: Non-enzymatic glycation of BSA; assay type: biochemical
Method: 1) Non-Enzymatic Glycation of BSA
This simple test reproduces in vitro a stress to which regular skin proteins are subjected: their functional alteration by a non-enzymatic glycation phenomenon.
The study model used is a bovine serum albumin (BSA), which is contacted with a physiological reducing sugar, the fructose, giving a spontaneous and slow reaction between the two molecules that can be accelerated by temperature. In this test, the BSA and fructose are incubated in the presence or absence of the test products at 50° C. for 7 days. The glycation end products have a natural fluorescence that can be quantified using a fluorimeter (λex=360 nm and λem=460 nm). 0.03% Aminoguanidine is used as a positive control of glycation inhibition.
The anti-glycation effect of the extract of Globularia cordifolia was studied using a protein model, BSA and a natural reducing sugar, fructose which glycates, i.e. binds, to the protein in a non-enzymatic manner. The product of this binding is fluorescent and is monitored with a recording system.

[4] = tested on: mitochondrial membrane potential; test: Mitochondrial membrane potential in fibroblasts after H2O2 stress; assay type: cell-based, human; conditions: Trolox at 500 μm
Method: Human dermal fibroblasts were placed in contact with the Globularia cordifolia extract according to the invention for 3 days. The cells were then exposed without said extract to an oxidative stress (hydrogen peroxide). After a further 3 days' contact with the Globularia cordifolia extract, the cells were again exposed to the same oxidative stress before being homogenized to measure residual intracellular creatine kinase activity. Activity was measured from the production of ATP from phosphocreatine and ADP. ATP is then measured from an enzymatic reaction leading to the formation of NADPH, readed at 340 nm. Results were standardized by measuring total protein (BCA). A fall in this membrane potential is a warning sign of ageing and cell death and it is therefore essential that this be maintained to preserve the mitochondrial ability to produce ATP. Membrane potential was measured using a specific label sensitive to mitochondrial proton micro-variations. The label exists in two forms, monomeric and polymeric, which have different emission spectra. A high membrane potential promotes the polymeric form. An increase in the monomer/polymer ratio (520 nm/590 nm) produces therefore a fall in Δψ. A high ratio is therefore less conducive to cell survival than a lower ratio. The same fibroblast cultures than used for creatine kinase there above were used.

[5] = tested on: Glutathion; test: Glutathion synthesis in keratinocytes; assay type: cell-based; conditions: Trolox at 0.012%
[6] = tested on: SOD (superoxide dismutase); test: Intracellular SOD activity in human keratinocytes treated with hydrogen peroxide; assay type: cell-based; conditions: Trolox at 0.012%
Description: A preliminary test on the antioxidant skin potential had shown that human keratinocytes treated with the hydrogen peroxide, a model of oxidative stress, increased their intracellular activity of SOD (superoxide dismutase) by 22%*(p<0.01) compared to the negative control in the presence of the Globularia cordifolia extract.

[7] = tested on: sirtuin-1; test: Intracellular sirtuin-1 in human keratinocytes (ELISA); assay type: cell-based; conditions: Trolox at 500 μm
Description: Hormetic effects such as calorie restriction or contact with hormetic molecules increase sirtuin enzymes and the lifespan of different organisms. The sirtuins act particularly on FOXO factor deacetylation and prevent triggering of the production of apoptotic proteins. The sirtuins also stimulate cellular anti-oxidant defenses and purification mechanisms (detoxification) and help to preserve mitochondrial function and therefore energy production. This increases survival and resistance to stresses. Human keratinocytes were cultured in the presence or absence of the Globularia cordifolia extract for 6 days and were then grinded and the intracellular levels of sirtuin-1 were measured using an ELISA method. Results were standardized by parallel measurement of total protein (BCA).

[8] = tested on: creatine kinase; test: Residual intracellular creatine kinase activity in human dermal fibroblasts after H2O2 stress; assay type: cell-based; conditions: Trolox at 500 μm
Description: Creatine kinase is a ubiquitous enzyme which exists in two isoforms in the skin. It is used to store energy in cells and enables tissues to respond to urgent energy requirements. This enzyme converts creatine into phosphocreatine using ATP which is converted back to ADP. When necessary, the enzyme works in the reverse direction and returns energy. Its activity falls with age as it is one of the preferred targets of reactive oxygen groups. Maintaining and increasing the activity of this enzyme is therefore desirable. Human dermal fibroblasts were placed in contact with the Globularia cordifolia extract according to the invention for 3 days. The cells were then exposed without said extract to an oxidative stress (hydrogen peroxide). After a further 3 days' contact with the Globularia cordifolia extract, the cells were again exposed to the same oxidative stress before being homogenized to measure residual intracellular creatine kinase activity. Activity was measured from the production of ATP from phosphocreatine and ADP. ATP is then measured from an enzymatic reaction leading to the formation of NADPH, readed at 340 nm. Results were standardized by measuring total protein (BCA).

[9] = tested on: intracellular peroxide; test: Endogenous peroxides in human keratinocytes (DCFH-DA probe); assay type: cell-based; conditions: Trolox at 500 μm
Method: This factor can be measured reliably using a probe called DCFH-DA, whose characteristic is to fluoresce in contact with peroxides once it entered the cell. Confluence human keratinocytes were placed in contact or not (negative control) for 24 h with the Globularia cordifolia extract until they grew to confluence. The cells were then exposed to and metabolized the DCFH label in a buffer. The label can then react with both intracellular peroxides. The medium was then replaced with one containing or not the Globularia cordifolia extract and the oxidizing agent model hydrogen peroxide (neither the medium nor the Globularia cordifolia extract reacts directly with H2O2). Fluorescence was read in order to estimate the level of the intracellular peroxide which had reacted with the label. The number of cells was quantified using a nuclear labeling method (Hoechst 33258).

[10] = tested on: proteasome; test: Residual proteasome activity in human dermal fibroblasts after H2O2 stress; assay type: cell-based; conditions: Trolox 500 μm
Description: Human dermal fibroblasts were placed or not (negative control) in contact with the Globularia cordifolia extract until they grew to confluence. The Globularia cordifolia extract was then removed and the cells were exposed to the oxidant model, hydrogen peroxide, to produce accelerated ageing. After this stage, the cells were again exposed to the Globularia cordifolia extract for 3 days and then were reseeded and subjected to a further oxidative stress to amplify the effect of the initial stress. The cells were then homogenized and the residual proteasome activity measured by monitoring cleavage of a model fluorescent peptide. Results were standardized by parallel measurement of protein.

bovine serum albumin (BSA), sequence (P02769 25-607): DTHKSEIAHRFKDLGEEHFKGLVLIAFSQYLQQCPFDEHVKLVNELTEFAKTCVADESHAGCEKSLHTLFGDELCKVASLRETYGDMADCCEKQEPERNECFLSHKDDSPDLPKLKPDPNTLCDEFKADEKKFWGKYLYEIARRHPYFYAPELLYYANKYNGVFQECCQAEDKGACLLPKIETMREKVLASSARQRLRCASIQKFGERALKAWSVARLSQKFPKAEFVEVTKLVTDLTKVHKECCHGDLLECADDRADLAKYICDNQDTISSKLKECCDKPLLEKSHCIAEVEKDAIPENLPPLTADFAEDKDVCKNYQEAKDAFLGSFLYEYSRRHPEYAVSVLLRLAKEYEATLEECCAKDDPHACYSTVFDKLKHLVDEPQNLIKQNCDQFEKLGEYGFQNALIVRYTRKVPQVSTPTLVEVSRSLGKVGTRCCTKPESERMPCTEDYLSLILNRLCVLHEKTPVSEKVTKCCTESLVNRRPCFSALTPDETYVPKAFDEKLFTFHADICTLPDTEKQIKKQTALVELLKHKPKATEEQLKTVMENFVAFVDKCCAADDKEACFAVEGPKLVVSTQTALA

With `O=C(O)/C=C/c1ccc(O)c(O)c1` [caffeic acid] the “anti-singlet-oxygen activity versus the control” value [1] was “+73%” and the “anti-radical activity versus the control” value [2] was −85%.

In the case of `N=C(N)NN` [Aminoguanidine], the “Glycation % Change, positive control” value ([3]; aminoguanidine at 0.03%) is reported as “Positive control aminoguanidine at 0.03%: −85%; p < 0.01” and the glycation inhibition versus the control ([3]; positive control, 0.03% Aminoguanidine) is reported as 85%.

With `Cc1c(C)c2c(c(C)c1O)CCC(C)(C(=O)O)O2` (centres unmarked) [Trolox] the “Mitochondrial membrane potential % Change, positive control” value [4] was “Positive control Trolox at 500 μm: +36%; p < 0.05”, the “GSH, positive control” value [5] was 53% and the “SOD, positive control” value [6] was 21%. The “Sirtuin-1 % Change, positive control” value [7] was “Positive control Trolox at 500 μm: +27%; p < 0.05”, the “Creatin kinase activity % Change, positive control” value [8] was “Positive control Trolox at 500 μm: +28%; p < 0.05” and the “Intracellular peroxide % Change, positive control” value [9] was “Positive control Trolox at 500 μm: −91%; (p < 0.01)”. For the same molecule, the “proteasome activity % Change, positive control” value [10] was “Positive control Trolox 500 μm: +24%; (p < 0.05)”.
